Assay type in all cases: in vivo
For assay [1], the system named is Alopecurus myosuroides (ALOMY). Put plainly: Pre-emergence biological efficacy, glasshouse, 1000 g/ha, evaluated after 13 days (100=total damage to plant; 0=no damage to plant). As to conditions: Alopecurus myosuroides, 312 h, rate 1,000 g/ha, read-out: Percentage damage caused to weed species, pre-emergence, ALOMY. In outline:
(§1)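 Glasshouse conditions were controlled at 24/16° C. day/night with a 14-hour photoperiod and 65% humidity; pots contained standard soil into which seeds had been sown, and plants were watered twice daily.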

Assay [2] deals with Solanum nigrum (SOLNI). Described as above. As to conditions: Solanum nigrum, 312 h, rate 1,000 g/ha, read-out: Percentage damage caused to weed species, pre-emergence, SOLNI. Summed up: as §1
Assay [3] has as its system Ipomoea hederaceae (IPOHE). The description is as above. As to conditions: Ipomoea, 312 h, rate 1,000 g/ha, read-out: Percentage damage caused to weed species, pre-emergence, IPOHE. In outline: as §1
Assay [4] concerns Echinochloa crus-galli (ECHCG). Described as above. As to conditions: Echinochloa crus-galli, 312 h, rate 1,000 g/ha, read-out: Percentage damage caused to weed species, pre-emergence, ECHCG. In outline: as §1
In assay [5] the test system is Setaria faberi (SETFA). Described as above. As to conditions: Setaria faberi, 312 h, rate 1,000 g/ha, read-out: Percentage damage caused to weed species, pre-emergence, SETFA. Summed up: as §1
For assay [6], the system named is Amaranthus retroflexus (AMARE). Described as above. As to conditions: Amaranthus retroflexus, 312 h, rate 1,000 g/ha, read-out: Percentage damage caused to weed species, pre-emergence, AMARE. Summed up: as §1
In assay [7] the test system is Echinochloa crusgaffi (ECHCG). In words: Post-emergence biological efficacy, glasshouse, 500 or 1000 g/ha, evaluated after 13 days (100=total damage to plant; 0=no damage to plant). As to conditions: Echinochloa, 312 h, rate 1,000 g/ha, read-out: Percentage damage caused to weed species, post-emergence, ECHCG. In outline: (§2)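 Plants raised from seed in pots of standard soil receive the spray after emergence. They then grow on under controlled glasshouse conditions (24/16° C. day/night, 14 hours light, 65% humidity) and are watered twice a day.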

Assay [8] concerns Alopecurus myosuroides (ALOMY). The description is as above. As to conditions: Alopecurus myosuroides, 312 h, rate 1,000 g/ha, read-out: Percentage damage caused to weed species, post-emergence, ALOMY. Summed up:
as §2

Assay [9] deals with Solanum nigrum (SOLNI). The description is as above. As to conditions: Solanum nigrum, 312 h, rate 1,000 g/ha, read-out: Percentage damage caused to weed species, post-emergence, SOLNI. In outline:
as §2

Assay [10] concerns Ipomoea hederaceae (IPOHE). The assay is described as above. As to conditions: Ipomoea, 312 h, rate 1,000 g/ha, read-out: Percentage damage caused to weed species, post-emergence, IPOHE. Summed up: as §2
Assay [11] deals with Setaria faberi (SETFA). Described as above. As to conditions: Setaria faberi, 312 h, rate 1,000 g/ha, read-out: Percentage damage caused to weed species, post-emergence, SETFA. In outline: as §2
Assay [12] concerns Amaranthus retroflexus (AMARE). The assay is described as above. As to conditions: Amaranthus retroflexus, 312 h, rate 1,000 g/ha, read-out: Percentage damage caused to weed species, post-emergence, AMARE. In outline:
as §2

Structures are written as SMILES.

On to `COc1c(Cl)ccc(-c2nc(C(=O)O)c3c(C)cn(C(C)c4ccccc4)c3n2)c1F` (stereo not drawn) [Compound 7-63, 4-Carboxy-2-(4-chloro-2-fluoro-3-methoxyphenyl)-5-methyl-7-(1-phenyl-ethyl)-7H-pyrrolo[2,3-d]pyrimidine], for which the pest or weed control at 1000 g/ha (in assay [1]; in the assay with Solanum nigrum (SOLNI) [2]; in assay [3]; in [4]; in the assay on Setaria faberi (SETFA) [5]; in [6]) was 0% throughout. For the same molecule, the pest or weed control at 1000 g/ha was 0% in assay [7]; 0% in assay [8]; 60% in the assay with Solanum nigrum (SOLNI) [9]; 10% in assay [10]; 10% in the assay on Setaria faberi (SETFA) [11]; 20% in [12].

Regarding `O=C(O)c1nc(C2CC2)nc2c1ccn2Cc1ccccc1[N+](=O)[O-]` [Compound 8-1, 4-Carboxy-2-cyclopropyl-7-(2-nitrophenyl-methyl)-7H-pyrrolo[2,3-d]pyrimidine], the pest or weed control at 1000 g/ha (in assay [1]; with Solanum nigrum (SOLNI) [2]; in assay [3]; in assay [4]; with Setaria faberi (SETFA) [5]; in assay [6]) was 0% in each case. In addition, the pest or weed control at 1000 g/ha in assay [7] amounted to 10%; in assay [8], 0%; with Solanum nigrum (SOLNI) [9], 30%; in assay [10] it was 40%; in the assay on Setaria faberi (SETFA) [11] it was 0%; in assay [12], 0%.

Consider `COC(=O)c1nc(C2CC2)nc2c1ccn2Cc1ccccc1[N+](=O)[O-]` [Compound 8-2, 2-Cyclopropyl-4-methoxycarbonyl-7-(2-nitrophenyl-methyl)-7H-pyrrolo[2,3-d]pyrimidine], for which the pest or weed control at 1000 g/ha (in [1]; in the assay on Solanum nigrum (SOLNI) [2]; in [3]; in assay [4]; in the assay with Setaria faberi (SETFA) [5]; in assay [6]) was 0% each time. For the same molecule, the pest or weed control at 1000 g/ha in assay [7] is 0%; in assay [8] it was 0%; in the assay on Solanum nigrum (SOLNI) [9], 20%; in [10], 20%; with Setaria faberi (SETFA) [11] it was 0%; in assay [12] it was 0%.

Turning to `Cc1cc2c(C(=O)O)nc(C3CC3)nc2n1Cc1ccccc1[N+](=O)[O-]` [Compound 8-5, 4-Carboxy-2-cyclopropyl-6-methyl-7-(2-nitrophenyl-methyl)-7H-pyrrolo[2,3-d]pyrimidine], the pest or weed control at 1000 g/ha (in assay [1]; in the assay on Solanum nigrum (SOLNI) [2]; in assay [3]; in assay [4]; in the assay on Setaria faberi (SETFA) [5]; in assay [6]) was 0% each time. The pest or weed control at 1000 g/ha (in [7]; in assay [8]; in the assay with Solanum nigrum (SOLNI) [9]; in assay [10]; in the assay on Setaria faberi (SETFA) [11]; in assay [12]) was 0% throughout.

The values are drawn from US20120202690A1, “HERBICIDAL COMPOUNDS” (SYNGENTA LIMITED, priority 2009, published 2012).
